Assay results: patent publication US5736394A, “Cellular uptake of modified peptides” (Boston Biomedical Research Institute, priority 1996, dated 1998)
Where no end group is shown, it is not given here. The star is where a group is joined. Benzoyl(4-benzoyl) = O=C(c1ccccc1)c1ccc(C(=O)*)cc1

How the values were obtained:
HL-60 cells = experiment: Cellular uptake of [3H]Bz-peptides / [3H]BBA by HL60 cells (silicone oil centrifugation, cell pellets counted)
Protocol: Initial experiments were designed to determine whether the Bz-modified peptide could cross cellular membranes. The methods employed for these studies are given briefly. First, 2×10^6 HL-60 cells/mL were incubated in serum free medium at 37° C. together with either [^3 H]-benzoylbenzoic acid ([^3 H]BBA) or the [^3 H]Bz-peptideover a 45 min time course. Aliquots (0.5 mL) of the cell suspension were removed at the times shown and separated from the aqueous medium by centrifugation through a silicone oil barrier. The cell pellets in the oil layer were counted.
The volume of an average HL60 cell can be estimated as 4.2×10^-6 μL. Thus, the pellet volume occupied by a […] suspension of 10^6 cells is […].

HL60 cells [1] = experiment: Inhibition of HL60 cell proliferation ([3H]TdR incorporation at 24 h) after photolysis of intracellular Bz-peptide at 365 nm; assay type: cell-based, human; conditions: for cytostatic response / inhibition of DNA synthesis: irradiation immediately after plating, FIG. 2A
From the text: Experiments were designed to determine whether, after admission of the target-specific Bz-peptide molecules into proliferating cells, their photolysis in situ would induce a cytostatic response. Such a response would implicate the irreversible inhibition of ras-prenylating enzymes. […] It is important to note that, regardless of treatment, Trypan blue-assessed viability remained above 90% under the conditions employed for all experiments shown in FIG. 2A,B.
Two fundamental variations were performed. For FIG. 2A, cells were incubated in serum-free medium in the presence of a Bz-peptide, mevinolin, or, as control, with the DMSO delivery vehicle alone, for 15 min at room temp., after which fetal bovine serum was added to 10% (v/v) followed by plating in triplicate at 0.5 mL/well. These plates were immediately irradiated at 365 nm for 15 min to excite the intracellular Bz photophore, then placed in the incubator at 37° C. for 24 h. For FIG. 2B, the same procedure was followed except that, after serum replenishment and plating, cells were first incubated at 37° C. for 1 h, then removed from the incubator, irradiated for 15 min, and returned to incubation for 24 h. The 1 h incubation prior to irradiation was performed to assess, indirectly, the potential for intracellular destruction (or other means of depletion) of the Bz-peptides. At 24 h after serum replenishment, all cells were pulse-labeled with [^3 H]TdR to record the effect of intracellular Bz-peptide photolysis (as well as of mevinolin treatment, the effects of which have been well documented) on DNA synthesis and, thereby, on cell proliferation.

HL60 cells [2] = experiment: HL60 cell proliferation ([3H]TdR incorporation into DNA) after 18 h incubation, plus or minus irradiation; assay type: cell-based, human
Protocol: A set of experiments were designed to assess the effects of Bz-peptides on ras-mediated signaling of cell proliferation, under conditions where incubations of cells, post peptide addition, were shorter (18 h) than that found optimal for their population doubling (~24 h). Experiments were intended to reveal early differences in the relative stability of the Bz-peptides, as judged by their effects on inhibition of cell proliferation, plus or minus irradiation.
HL60 cells were exposed to Bz-ACVIM SEQ ID NO: 4 (FPTase-specific), Bz-ACVIL SEQ ID NO: 5 (GGPTase-I-specific), the benzophenone photophore (BBA), mevinolin (proliferation inhibition control), or the DMSO vehicle alone, plus or minus irradiation. After incubation for 18 h at 37° C., irradiated and non-irradiated cultures were assayed for [^3 H]TdR incorporation into DNA (a measure of proliferation).

[3] = 10 μM, 1 h delay at 37° C. before photolysis, 24 h, FIG. 2B

Bz-ACVIL: Bz-derivatized pentapeptide ACVIL; GGPTase-I-specific photoaffinity inhibitor ({Benzoyl(4-benzoyl)}-ACVIL)
influx and equilibration into cells (HL-60 cells): behaved similarly
inhibitory effect (HL60 cells [1]; [3]): ineffective
cytostatic response (HL60 cells [1]; 10 μM, 24 h): did not do so
loss of the inhibitory capacity manifest in FIG. 2A (HL60 cells [1]; 100 μM, 1 h delay before photolysis, FIG. 2B relative to FIG. 2A): about 60%
cytostatic response (HL60 cells [1]; 100 μM, 24 h): clear cytostatic response

APRTPGGRR
intracellular accumulation (HL-60 cells; 48 μM, HL60 cells, lowest trace in FIG. 1B): no evidence for intracellular accumulation

Bz-ACVIM: Bz-derivatized pentapeptide; benzophenone moiety amide-coupled to the N-terminus of ACVIM; FPTase-specific photoaffinity inhibitor ({Benzoyl(4-benzoyl)}-ACVIM)
influx and equilibration into cells (HL-60 cells): extremely rapid
time to reach maximum levels of influx and equilibration (HL-60 cells): ≤ 15 min
inhibitory effect (HL60 cells [1]; [3]): much lower inhibitory effect
inhibition of DNA synthesis (HL60 cells [1]; 10 μM, 24 h): 75-80%
cytostatic effect (HL60 cells [1]; 100 μM, 1 h delay at 37° C. before photolysis, 24 h, FIG. 2B): remained at least as powerful as in FIG. 2A
inhibition of DNA synthesis (HL60 cells [1]; 100 μM, 24 h): 75-80%

O=C(O)c1ccc(C(=O)c2ccccc2)cc1 [BBA, 4-benzoylbenzoic acid]
effect on the cell's capacity for proliferation (HL60 cells [2]; whether cells were irradiated or not, 6th bar both panels): no effect

mevinolin [reference compound]
relative extent of inhibition of cell proliferation (HL60 cells [2]; whether or not cells were irradiated, 2nd bar both panels): ~ 50%
growth inhibition (HL60 cells [1]; 10 μM, FIGS. 2A & 2B, whether irradiation was delayed for 1 h or not): apparent
